Each structure is given as a SMILES string. Read-outs that look alike come from different tables or passages of the source.

Experiment [1] deals with T1, FimH (Escherichia coli, UniProt Q1R2J4). Nature of the experiment: cell-based. The settings on record: for EC90: read-out: HAI Titer EC90.
Experiment [2] addresses T1, FimH.
For experiment [3], the target named is T2, FimH lectin domain (residues 1-158 of UPEC J96 FimH) (Escherichia coli, UniProt P08191).
T2 construct: made in house
The format is binding. The note with it: Table 20; compound at 100 μM. The method, then: DSF measures the melting temperature change of protein when binding to small molecules. Melting temperature shifts are proportional to the free energy of binding, and melting temperatures increase even as ligand concentration exceeds the Kd.
FimH lectin domain (residues 1-158 of UPEC J96 FimH, without an affinity tag) was purified as described previously. Five micrograms FimH in 5 μl HBS were mixed with HBS to yield a final volume of 50 μl containing compound at a final concentration of 100 μM and a “5×” final concentration of SYPRO Orange (sold as a “5000×” stock in DMSO and mixed with HBS to a working stock of 50× immediately before use: Life Technologies Inc.; Grand Island, N.Y.). Compounds were diluted to 100 μM from stocks in DMSO and compared to matched control wells with FimH alone plus 0.2% DMSO. 50 μl reactions were placed in 96-well clear-bottom PCR plates and subjected to a melt curve from 20-90° C. in 0.5° C. increments of 15 seconds each followed by a fluorescence read of the “HEX” channel in a Bio-Rad CFX96 thermocycler (Bio-Rad, Hercules, Calif.). Melt curves were fitted to the Boltzmann equation to determine the melting temperature (Tm) (y=A2+(A1−A2)/(1+exp((x−x0)/dx)) where x0 is the Tm) using OriginPro 8 (OriginLab, Northampton Mass.).

For experiment [4], the system named is UTI89 biofilm. The experiment can be described thus: UTI89 type 1 dependent biofilm formation (inhibition/prevention) assay on PVC, crystal violet. The format is cell-based, uropathogenic E. coli UTI89. The settings on record: Escherichia coli. Here is the method: In yet other embodiments, activity of the compound may be measured using the ability of the compound to prevent or disrupt biofilm formation.
UTI89 biofilm was grown in LB+/− mannoside for 24 h at 22° C. in PVC plates and quantitated using crystal violet. UTI89 biofilm for confocal microscopy was grown in LB for 24 h at 22° C. on PVC coverslips. Mannoside was then added and biofilm was grown for an additional 16 h. Coverslips were then washed in PBS, fixed in 2% paraformaldehyde and stained with SYTO9 prior to confocal microscopy. For all animal experiments UTI89 or PBC-1 was grown 2×24 h statically in LB at 37° C. and inoculated at a dose of 1×10^7 bacteria in 50 μl. All mice used were female C3H/HeN (Jackson). For the pretreatment studies, bacteria were incubated with mannoside for 20 min prior to inoculation into the mouse. […] For CFU counts, bladders were harvested at 6 hpi and placed in 1 mL PBS. Bladders were then homogenized, diluted and plated on LB. After growth at 37° C. overnight, bacterial counts were determined. LacZ staining and gentamicin protection assays were performed at 6 hpi. […] Water was changed daily with fresh antibiotics. Standard growth curve assays and hemagglutination assays were performed with TMP-SMZ. All statistical analysis performed was a two-tailed Mann-Whitney U test.
Biofilm assay. UTI89 was grown in LB broth in wells of PVC microtiter plates at 23° C. in the presence of individual mannosides at varying concentrations. After 48 h of growth, wells were rinsed with water and stained with crystal violet for quantification as described. For biofilm disruption activity in PVC plates, UTI89 was grown in LB broth in wells of PVC microtiter plates at 23° C. After 24 h of growth, mannoside was added and biofilms were grown for an additional 16 h. Wells were then rinsed, stained with crystal violet and quantified. For biofilm disruption activity on PVC coverslips, UTI89 was grown in LB broth in 50 mL conicals containing PBC coverslips at 23° C. After 24 h of growth, 0.3 μM ZFH-2056 was added and biofilm was grown for an additional 16 h.
UTI89 biofilm was grown in LB+/− mannoside for 24 h at 22° C. in PVC plates and quantified using crystal violet. UTI89 biofilm for confocal microscopy was grown in LB for 24 h at 22° C. on PVC coverslips followed by mannoside treatment for 16 h. For all animal experiments UTI89 or PBC-1 was grown 2×24 h statically in LB at 37° C. and inoculated at a dose of 1×10^7 bacteria in 50 μl. All mice used were female C3H/HeN (Harlan). For the chronic UTI model, mice were infected for 2 weeks prior to treatment with mannoside. […] For oral dosing, 100 μl of 10 mg/ml (50 mg/kg) or 20 mg/ml (100 mg/kg) mannoside in 8% DMSO was inoculated with a gavage needle 30 min prior to inoculation of bacteria. […] For CFU counts, bladders were harvested at 6 hpi and placed in 1 mL PBS. Bladders were then homogenized, diluted and plated on LB. After growth at 37° C. overnight, bacterial counts were determined. LacZ staining and gentamicin protection assays were performed at 6 hpi. […] Water was changed daily with fresh antibiotics. Standard growth curve and hemagglutination assays were performed. All statistical analysis performed was a two-tailed Mann-Whitney U test. […] Compounds 7-10 were prepared using slightly modified procedures. All compounds are >95% pure as determined by HPLC/MS and ^1H NMR.
UTI89 was grown in LB broth in wells of PVC microtiter plates at 23° C. in the presence of individual mannosides at varying concentrations. After 48 h of growth, wells were rinsed with water and stained with crystal violet for quantification as described. For biofilm disruption activity in PVC plates, UTI89 was grown in LB broth in wells of PVC microtiter plates at 23° C. After 24 h of growth, mannoside was added and biofilms were grown for an additional 16 h. Wells were then rinsed, stained with crystal violet and quantified. […]

For experiment [5], the target named is FimH (Escherichia coli, UniProt P08191). Nature of the experiment: biochemical. In kind it is binding, E. coli.
Where [6] appears, read: Table 19, Examples 30-36 numbering.
Where [7] appears, read: read-out: Biofilm IC50 (approximated).
[8] abbreviates: read-out: Biofilm IC50 [calculated].
The mark [9] stands for this setting: FP Binding EC50, Table 13, competition with FAM mannoside 20.
[10] abbreviates: FimH EC50 (μM)-June 30, June 30 determination.
[11] abbreviates: Table 18, Examples 30-36 numbering.
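Wherever EC90 is given: hemagglutination inhibition of guinea pig erythrocytes agglutinated by type 1 piliated uropathogenic E. coli via FimH mannose binding, quantified through serial dilutions of compound.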
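Wherever HAI Titer EC>90 is given: hemagglutination inhibition of guinea pig erythrocytes agglutinated by type 1 piliated uropathogenic E. coli via FimH mannose binding, quantified through serial dilutions of compound.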
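Wherever fold better HAI activity is given: hemagglutination inhibition of guinea pig erythrocytes agglutinated by type 1 piliated uropathogenic E. coli via FimH mannose binding, quantified through serial dilutions of compound.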
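Wherever fold improvement in HA titer is given: hemagglutination inhibition of guinea pig erythrocytes agglutinated by type 1 piliated uropathogenic E. coli via FimH mannose binding, quantified through serial dilutions of compound.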

In experiment [1], `N#Cc1ccc(OC2OC(CO)C(O)C(O)C2O)cc1` (stereo not shown) [Compound 1ZFH65, 4-[3,4,5-6-trihydroxy-6-(hydroxymethyl)tetrahydropyran-2-yl]oxybenzonitrile] returned a half-maximal effective concentration (EC50) of 30 µM. Moreover, in experiment [2], the “HAI Titer EC>90” value worked out at 30.000 µM.

As to `COC(=O)c1sc(-c2ccc(O[C@H]3O[C@H](CO)[C@@H](O)[C@H](O)[C@@H]3O)cc2)cc1NC(N)=O` [Compound 13a, Methyl 5-[4-[(2R,3S,4S,5S,6R)-3,4,5-trihydroxy-6-(hydroxymethyl)tetrahydropyran-2-yl]oxyphenyl]-3-ureido-thiophene-2-carboxylate], the EC90 in experiment [1] is 0.016 µM. In addition, the “HAI Titer EC>90” value in experiment [2] (setting [6]) is 0.02 µM.

Regarding `COC(=O)c1cc(-c2ccc(O[C@H]3O[C@H](CO)[C@@H](O)[C@H](O)[C@@H]3O)cc2)ccn1` [Compound 12a, Methyl 4-[4-[(2R,3S,4S,5S,6R)-3,4,5-trihydroxy-6-(hydroxymethyl)tetrahydropyran-2-yl]oxyphenyl]pyridine-2-carboxylate], the “DSF Melting Temp.” value in experiment [3] turned out to be 73.68 °C. Besides, the “HAI Titer EC>90” value in experiment [2] (setting [6]) stood at 0.50 µM; in experiment [2] (Table 20, Examples 30-36 numbering), 0.500 µM.

As for `COC(=O)c1ccc(OC2OC(CO)C(O)C(O)C2O)cc1` (stereo not shown) [Compound 1ZFH53, methyl 4-[3,4,5-trihydroxy-6-(hydroxymethyl)tetrahydropyran-2-yl]oxybenzoate], the IC50 is 10 to 100 µM in experiment [4] (setting [7]) and around 62 µM in experiment [4] (setting [8]). Also, the EC50 in experiment [1] came to 8 µM; in experiment [5] (setting [9]) it was 0.064 µM; in experiment [5] (FimH EC50) it was 0.058 µM; in experiment [5] (setting [10]) it was 0.0696 µM. In addition, the “HAI Titer EC>90” value in experiment [2] is 8.000 µM.

As for `O=C(O)c1cccc(-c2ccc(OC3OC(CO)C(O)C(O)C3O)cc2)c1` (stereo not shown) [Compound 14c], the EC50 was determined as 4 µM in experiment [1] and 0.099 µM in experiment [5] (setting [9]).

In experiment [1], `OCC1OC(Oc2ccc(Cl)cc2)C(O)C(O)C1O` (stereo not shown) [Compound 2ZFH178, 2-(4-chlorophenoxy)-6-(hydroxymethyl)tetrahydropyran-3,4,5-triol] registered an EC50 of 32 µM. In addition, the “HAI Titer EC>90” value in experiment [2] was 32.000 µM.

Turning to `O=[N+]([O-])c1ccc(O[C@H]2O[C@H](CO)[C@@H](O)[C@H](O)[C@@H]2O)cc1` [Compound 3b], in experiment [1], the EC50 stood at 31 µM.

Regarding `CN1CCN(C(=O)c2cccc(-c3ccc(O[C@H]4O[C@H](CO)[C@@H](O)[C@H](O)[C@@H]4O)cc3)c2)CC1` [Compound 10d, (4-Methylpiperazin-1-yl)-[3-[4-[(2R,3S,4S,5S,6R)-3,4,5-trihydroxy-6-(hydroxymethyl)tetrahydropyran-2-yl]oxyphenyl]phenyl]methanone], the EC90 in experiment [1] stood at 4 µM. Further, the “HAI Titer EC>90” value in experiment [2] (setting [11]) stood at 4.0 µM.

Regarding `NC(=O)c1ccc(OC2OC(CO)C(O)C(O)C2O)cc1` (stereo not shown) [Compound 1ZFH157, 4-[3,4,5-trihydroxy-6-(hydroxymethyl)tetrahydropyran-2-yl]oxybenzamide], the EC50 in experiment [1] stood at 15 µM. The “HAI Titer EC>90” value in experiment [2] worked out at 15.000 µM.

As for `COC(=O)c1cccc(-c2ccc(O[C@H]3O[C@H](CO)[C@@H](O)[C@H](O)[C@@H]3O)c(C)c2)c1` [Compound 4c, Methyl 3-[3-methyl-4-[(2R,3S,4S,5S,6R)-3,4,5-trihydroxy-6-(hydroxymethyl)tetrahydropyran-2-yl]oxy-phenyl]benzoate], in experiment [4] (read-out: Biofilm Prevention IC50), the IC50 was 0.33 µM. The EC90 in experiment [1] stood at 0.12 µM. Also, the “HAI Titer EC>90” value in experiment [2] (Table 17, Examples 30-36 numbering) was 0.12 µM. Besides, the “fold better HAI activity” value in experiment [2] (relative to matched pair 1, Examples 30-36 numbering) was found to be 8 fold.

On to `COC(=O)c1cccc(-c2ccc(OC3OC(CO)C(O)C(O)C3O)cc2)c1` (stereo not shown) [Compound 8e], for which the EC50 came to 1 µM in experiment [1] and 0.052 µM in experiment [5] (setting [9]). Moreover, the “fold improvement in HA titer” value in experiment [2] (relative to 6 (4-methylumbellferyl-α-D-mannoside)) is 2 fold. Besides, the “fold more potent in HA titer” value in experiment [2] (relative to Methylaman) is given as “greater than 1000 fold”.

As for `OC[C@H]1O[C@H](Oc2ccccc2)[C@@H](O)[C@@H](O)[C@@H]1O` [Compound 3a, phenyl mannoside], the EC50 in experiment [1] turned out to be 30 µM.

On to `CS(=O)(=O)Nc1cccc(-c2ccc(OC3OC(CO)C(O)C(O)C3O)cc2)c1` (stereo not shown) [Compound 3ZFH166, N-[3-[4-[3,4,5-trihydroxy-6-(hydroxymethyl)tetrahydropyran-2-yl]oxyphenyl]phenyl]methanesulfonamide], for which the EC50 in experiment [1] amounted to 2 µM; in experiment [5] (setting [9]) it was 0.097 µM. For the same compound, the “HAI Titer EC>90” value in experiment [2] came to 2.000 µM.

With `O=C(c1cccc(-c2ccc(O[C@H]3O[C@H](CO)[C@@H](O)[C@H](O)[C@@H]3O)cc2)c1)N1CCNCC1` [Compound 10c, Piperazin-1-yl-[3-[4-[(2R,3S,4S,5S,6R)-3,4,5-trihydroxy-6-(hydroxymethyl)tetrahydropyran-2-yl]oxyphenyl]phenyl]methanone], the EC90 in experiment [1] amounted to 4 µM. Also, the “HAI Titer EC>90” value in experiment [2] (setting [11]) is 4.0 µM.

In experiment [1], `O=C(O)c1cccc(OC2OC(CO)C(O)C(O)C2O)c1` (stereo not shown) [Compound 1ZFH216, 3-[3,4,5-trihydroxy-6-(hydroxymethyl)tetrahydropyran-2-yl]oxybenzoic acid] came in with an EC50 of 60 µM. Further, the “HAI Titer EC>90” value in experiment [2] is 60.000 µM.

`CNC(=O)c1cc(C(=O)NC)cc(-c2ccc(OC3OC(CO)C(O)C(O)C3O)cc2)c1` (stereo not shown) [Compound 2ZFH56, N1,N3-dimethyl-5-[4-[3,4,5-trihydroxy-6-(hydroxymethyl)tetrahydropyran-2-yl]oxyphenyl]benzene-1,3-dicarboxamide]: in experiment [4] (setting [8]), the IC50 is 0.4 µM. In addition, in experiment [2], the “HAI Titer EC>90” value was 0.370 µM. Also, the EC50 turned out to be 0.07 µM in experiment [5] (FimH EC50) and 0.105 µM in experiment [5] (setting [10]).

On to `NC(=O)c1cccc(-c2ccc(OC3OC(CO)C(O)C(O)C3O)cc2)c1` (stereo not shown) [Compound 2ZFH32, 3-[4-[3,4,5-trihydroxy-6-(hydroxymethyl)tetrahydropyran-2-yl]oxyphenyl]benzamide], for which the IC50 in experiment [4] (setting [7]) was around 3 µM. The EC50 in experiment [1] was 2 µM; in experiment [5] (setting [9]), 0.078 µM; in experiment [5] (FimH EC50) it was 0.057 µM; in experiment [5] (setting [10]) it was 0.136 µM. For the same compound, the “HAI Titer EC>90” value in experiment [2] worked out at 2.000 µM.

Usually EC50 stands for the concentration needed to bring the measured effect to its halfway point. What is called EC90 is the concentration at which the effect reaches the 90% level. One may read the IC50 as the concentration that gives 50% inhibition.
